# Assays:
# Test in all cases: Antibacterial activity, MIC
# Format in all cases: cell-based
# K. pneumoniae = conditions: laboratory-sensitive strain
# MDR S. aureus = conditions: clinical MDR isolate
# S. aureus = conditions: laboratory-sensitive strain
# MDR K. pneumoniae = conditions: clinical MDR isolate
# E. coli = conditions: laboratory-sensitive strain
# MDR E. coli = conditions: clinical MDR isolate
# MDR S. epidermidis = conditions: clinical MDR isolate
# S. epidermidis = conditions: laboratory-sensitive strain
Substance,"MIC, K. pneumoniae (K. pneumoniae) [µg/mL]","MIC, MDR S. aureus (MDR S. aureus) [µg/mL]","MIC, S. aureus (S. aureus) [µg/mL]","MIC, MDR K. pneumoniae (MDR K. pneumoniae) [µg/mL]","MIC, E.coli (E. coli) [µg/mL]","MIC, MDR E.coli (MDR E. coli) [µg/mL]","MIC, MDR S. epidermidis (MDR S. epidermidis) [µg/mL]","MIC, S. epidermidis (S. epidermidis) [µg/mL]","MIC, MDR K. pneumoniae (MDR K. pneumoniae; listed as polymyxin) [µg/mL]","MIC, MDR E.coli (MDR E. coli; listed as polymyxin) [µg/mL]"
Gentamicin,<2,>128,<2,>128,<2,>128,<2,<2,–,–
Penicilin,32,64,<2,>128,<2,>128,>32,<2,–,–
Polymyxin,<2,>128,>128,64,16,32,>128,64,> 64,> 32

# Reference: patent US12691109B2, “Bifunctional aggregation-induced emission luminogen for monitoring and killing of multidrug-resistant bacteria” (The Hong Kong University of Science and Technology, priority 2018, dated 2026)
